Results from PubChem BioAssay (NCI).
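Values below derive from 48-hour exposures of cells grown in 96-well plates, with endpoints linearly interpolated between the two concentrations bracketing the appropriate inhibition level. The concentration for 50% growth inhibition is given as GI50. TGI is the concentration that stops growth completely.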

Experiments:
Assay in all cases: DTP human tumour cell line panel, 48 h
[1] = tested on: U251 CNS
[2] = tested on: DU-145 prostate
[3] = tested on: KM12 colon
[4] = tested on: MCF7 breast
[5] = tested on: NCI-H460 lung
[6] = tested on: SK-MEL-5 melanoma
[7] = tested on: SF-268 CNS
[8] = tested on: M14 melanoma
[9] = tested on: TK-10 renal
[10] = tested on: IGROV1 ovarian
[11] = tested on: OVCAR-5 ovarian
[12] = tested on: UO-31 renal
[13] = tested on: NCI/ADR-RES ovarian
[14] = tested on: HCT-15 colon
[15] = tested on: SN12C renal
[16] = tested on: HOP-62 NSCLC
[17] = tested on: BT-549 breast
[18] = tested on: SF-295 CNS
[19] = tested on: SK-OV-3 ovarian
[20] = tested on: HCC-2998 colon
[21] = tested on: CAKI-1 renal
[22] = tested on: RPMI-8226 leukemia
[23] = tested on: OVCAR-8 ovarian
[24] = tested on: HS 578T breast
[25] = tested on: OVCAR-3 ovarian
[26] = tested on: PC-3 prostate
[27] = tested on: K-562 leukemia
[28] = tested on: SW-620 colon
[29] = tested on: HCT-116 colon
[30] = tested on: A498 renal
[31] = tested on: NCI-H522 lung
[32] = tested on: HOP-92 NSCLC
[33] = tested on: HL-60(TB) leukemia
[34] = tested on: OVCAR-4 ovarian
[35] = tested on: MALME-3M melanoma
[36] = tested on: NCI-H23 lung
[37] = tested on: SF-539 CNS
[38] = tested on: SNB-19 CNS
[39] = tested on: MDA-MB-435
[40] = tested on: SK-MEL-2 melanoma
[41] = tested on: EKVX NSCLC
[42] = tested on: COLO 205 colon
[43] = tested on: A549 NSCLC
[44] = tested on: 786-0 renal
[45] = tested on: RXF 393 renal
[46] = tested on: NCI-H226 lung
[47] = tested on: UACC-62 melanoma
[48] = tested on: ACHN renal
[49] = tested on: LOX IMVI melanoma
[50] = tested on: SK-MEL-28 melanoma
[51] = tested on: HT29 colon
[52] = tested on: T-47D breast
[53] = tested on: MDA-MB-231 breast
[54] = tested on: CCRF-CEM leukemia
[55] = tested on: SNB-75 CNS
[56] = tested on: UACC-257 melanoma

Compound: C=C(CN1CCN(c2cc(C(F)(F)F)cc(C(F)(F)F)c2)CC1)c1ccc(C(=O)Nc2ccccc2N)cc1
- GI50 [1]: 10.1 µM
- TGI [1]: > 100 µM
- GI50 [2]: 5.4 µM
- TGI [2]: > 100 µM
- GI50 [3]: 3.47 µM
- TGI [3]: 21.8 µM
- GI50 [4]: 839 nM
- TGI [4]: 21.8 µM
- GI50 [5]: 4.09 µM
- TGI [5]: > 100 µM
- GI50 [6]: 2280 nM
- TGI [6]: 10.8 µM
- GI50 [7]: 8.12 µM
- TGI [7]: > 100 µM
- GI50 [8]: 3.76 µM
- TGI [8]: > 100 µM
- GI50 [9]: 12.3 µM
- TGI [9]: > 100 µM
- GI50 [10]: 4.2 µM
- TGI [10]: 27.3 µM
- GI50 [11]: 54.6 µM
- TGI [11]: > 100 µM
- GI50 [12]: 5.57 µM
- TGI [12]: > 100 µM
- GI50 [13]: 5.82 µM
- TGI [13]: > 100 µM
- GI50 [14]: 3.96 µM
- TGI [14]: > 100 µM
- GI50 [15]: 2470 nM
- TGI [15]: 13.4 µM
- GI50 [16]: 16.2 µM
- TGI [16]: > 100 µM
- GI50 [17]: 5.04 µM
- TGI [17]: 24.6 µM
- GI50 [18]: 7.29 µM
- TGI [18]: 62 µM
- GI50 [19]: 25.7 µM
- TGI [19]: > 100 µM
- GI50 [20]: 4.28 µM
- TGI [20]: 26.4 µM
- GI50 [21]: 2810 nM
- TGI [21]: 42.3 µM
- GI50 [22]: 1650 nM
- TGI [22]: 4.22 µM
- GI50 [23]: 9.55 µM
- TGI [23]: > 100 µM
- GI50 [24]: 4.81 µM
- TGI [24]: 35.6 µM
- GI50 [25]: 3.18 µM
- TGI [25]: 21.2 µM
- GI50 [26]: 2920 nM
- TGI [26]: 31 µM
- GI50 [27]: 1690 nM
- TGI [27]: > 100 µM
- GI50 [28]: 6.95 µM
- TGI [28]: 34.9 µM
- GI50 [29]: 3.67 µM
- TGI [29]: > 100 µM
- GI50 [30]: 2040 nM
- TGI [30]: 14.4 µM
- GI50 [31]: 5.21 µM
- TGI [31]: > 100 µM
- GI50 [32]: 1880 nM
- TGI [32]: 7.45 µM
- GI50 [33]: 1050 nM
- TGI [33]: > 100 µM
- GI50 [34]: 2530 nM
- TGI [34]: 9.9 µM
- GI50 [35]: 13.8 µM
- TGI [35]: 47.9 µM
- GI50 [36]: 14.2 µM
- TGI [36]: 72.1 µM
- GI50 [37]: 18 µM
- TGI [37]: > 100 µM
- GI50 [38]: 14 µM
- TGI [38]: > 100 µM
- GI50 [39]: 1840 nM
- TGI [39]: 4.88 µM
- GI50 [40]: 10.2 µM
- TGI [40]: > 100 µM
- GI50 [41]: 11.7 µM
- TGI [41]: 58.6 µM
- GI50 [42]: 7.11 µM
- TGI [42]: 52.6 µM
- GI50 [43]: 19 µM
- TGI [43]: > 100 µM
- GI50 [44]: 6.77 µM
- TGI [44]: 86.5 µM
- GI50 [45]: 2020 nM
- TGI [45]: 7.71 µM
- GI50 [46]: 9.89 µM
- TGI [46]: > 100 µM
- GI50 [47]: 4.21 µM
- TGI [47]: > 100 µM
- GI50 [48]: 5.81 µM
- TGI [48]: > 100 µM
- GI50 [49]: 2340 nM
- TGI [49]: > 100 µM
- GI50 [50]: 3.68 µM
- TGI [50]: 15.9 µM
- GI50 [51]: 1910 nM
- TGI [51]: 4.75 µM
- GI50 [52]: 8.97 µM
- TGI [52]: > 100 µM
- GI50 [53]: 1060 nM
- TGI [53]: 17.9 µM
- GI50 [54]: 1490 nM
- TGI [54]: 6.51 µM
- GI50 [55]: 3.44 µM
- TGI [55]: 18.5 µM
- GI50 [56]: 6.57 µM
- TGI [56]: 64.9 µM
